BindingDB's records for doi:10.1016/j.bioorg.2016.02.004 (Universiti Teknologi Mara (Uitm), Puncak Alam Campus, 2016)

What follows are molecules tested against Alpha-glucosidase MAL12 (Saccharomyces cerevisiae (strain ATCC 204508 / S288c), UniProt P53341) (assay: Assay for α-Glucosidase Inhibitory Activity).
Method: The 135 µL of 50 mM phosphate saline buffer pH (6.8), solution of enzyme (20 µL), and 20 µL of test sample with 70% DMSO was added to 96-well plate. The samples were incubated for 15 min. Pre-read of the plate was taken after incubation using SpectraMax. substrate (pNPG) (25 µL) was added before final reading was takenat 400 nm on Spectra Max.

Sequence of Alpha-glucosidase MAL12 (P53341 whole entry): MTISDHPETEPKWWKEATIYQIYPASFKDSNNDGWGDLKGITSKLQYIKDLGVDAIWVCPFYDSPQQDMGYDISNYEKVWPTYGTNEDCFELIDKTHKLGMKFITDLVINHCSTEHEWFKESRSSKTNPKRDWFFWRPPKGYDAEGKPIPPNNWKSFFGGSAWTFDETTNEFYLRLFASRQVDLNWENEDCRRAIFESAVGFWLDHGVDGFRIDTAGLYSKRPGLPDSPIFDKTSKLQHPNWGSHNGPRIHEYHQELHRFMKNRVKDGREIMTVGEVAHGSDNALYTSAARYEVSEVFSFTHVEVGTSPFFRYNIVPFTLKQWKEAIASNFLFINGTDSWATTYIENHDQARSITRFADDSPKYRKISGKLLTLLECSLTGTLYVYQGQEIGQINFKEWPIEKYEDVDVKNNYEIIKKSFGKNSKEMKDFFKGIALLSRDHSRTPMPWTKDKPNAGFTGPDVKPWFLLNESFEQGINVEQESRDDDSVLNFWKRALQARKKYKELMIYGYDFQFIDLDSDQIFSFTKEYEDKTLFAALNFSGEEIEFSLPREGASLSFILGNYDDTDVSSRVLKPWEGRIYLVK

| SMILES | IC50 [µM] |
| --- | --- |
| Cc1cccc2nc(-c3cccc(O)c3O)[nH]c12 [2-(2',3'-Dihydroxyphenyl)-7-methyl-1H-benzo[d]imidazole (15)] | 85.6 |
| Cc1cccc2nc(-c3ccccc3Cl)[nH]c12 [2-(2'-Chlorophenyl)-7-methyl-1H-benzo[d]imidazole (25)] | 5.3 |
| COc1ccc(O)c(-c2nc3cccc(C)c3[nH]2)c1 [2-(2'-Hydroxy-5'-methoxyphenyl)-7-methyl-1H-benzo[d]imidazole (14)] | 45.2 |
| Cc1cccc2nc(-c3ccccc3O)[nH]c12 [2-(2'-Hydroxyphenyl)-7-methyl-1H-benzo[d]imidazole (19)] | 16.1 |
| Cc1cccc2nc(-c3ccc(O)c(O)c3)[nH]c12 [2-(3',4'-Dihydroxyphenyl)-7-methyl-1H-benzo[d]imidazole (10)] | 25.4 |
| Cc1cccc2nc(-c3cccc(F)c3)[nH]c12 [2-(3'-Fluorophenyl)-7-methyl-1H-benzo[d]imidazole (9)] | 165 |
| Cc1cccc2nc(-c3cccc(O)c3)[nH]c12 [2-(3'-Hydroxyphenyl)-7-methyl-1H-benzo[d]imidazole (18)] | 326 |
| Cc1cccc2nc(-c3ccc(Cl)cc3)[nH]c12 [2-(4'-Chlorophenyl)-7-methyl-1H-benzo[d]imidazole (27)] | 145 |
| Cc1cccc2nc(-c3cc(O)ccc3O)[nH]c12 [2-(20,50-Dihydroxyphenyl)-7-methyl-1H-benzo[d]imidazole (13)] | 125 |
| Cc1cccc2nc(-c3ccncc3)[nH]c12 [7-Methyl-2-(pyridin-4'-yl)-1H-benzo[d]imidazole (24)] | 726 |

The remaining lines, values ahead:

| IC50 [µM] | SMILES |
| --- | --- |
| 60.9 | Cc1cccc2nc(-c3ccc(O)cc3O)[nH]c12 [2-(2',4'-Dihydroxyphenyl)-7-methyl-1H-benzo[d]imidazole (2)] |
| 34.4 | Cc1cccc2nc(-c3ccccc3F)[nH]c12 [2-(2'-Fluorophenyl)-7-methyl-1H-benzo[d]imidazole (8)] |
| 29.8 | COc1ccc(-c2nc3cccc(C)c3[nH]2)c(O)c1 [2-(2'-Hydroxy-4'-methoxyphenyl)-7-methyl-1H-benzo[d]imidazole (20)] |
| 44.6 | Cc1cccc2nc(-c3ccccc3[N+](=O)[O-])[nH]c12 [2-(2'-Nitrophenyl)-7-methyl-1H-benzo[d]imidazole (7)] |
| 226 | COc1ccc(-c2nc3cccc(C)c3[nH]2)cc1O [2-(3'-Hydroxy-4'-methoxyphenyl)-7-methyl-1H-benzo[d]imidazole (21)] |
| 136 | Cc1cccc2nc(-c3ccc(F)cc3)[nH]c12 [2-(4'-Fluorophenyl)-7-methyl-1H-benzo[d]imidazole (16)] |
| 95.6 | Cc1cccc2nc(-c3ccc(O)cc3)[nH]c12 [2-(4'-Hydroxyphenyl)-7-methyl-1H-benzo[d]imidazole (17)] |
